#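 Grown in 96-well plates, cells were treated for 48 hours with each compound at five concentrations. Insufficient inhibition: endpoint recorded as highest concentration tested. GI50 is the concentration that inhibits growth by half. TGI marks complete inhibition of growth.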
# What was measured:
# Experiment in all cases: growth of human tumour cells (NCI), 48 h
# [1] = tested on: OVCAR-3 ovarian
# [2] = tested on: SK-MEL-28 melanoma
# [3] = tested on: SNB-75 CNS
# [4] = tested on: NCI-H460 lung
# [5] = tested on: SNB-19 CNS
# [6] = tested on: CCRF-CEM leukemia
# [7] = tested on: LXFL 529 NSCLC
# [8] = tested on: SNB-78 CNS
# [9] = tested on: BT-549 breast
# [10] = tested on: HS 578T breast
Structure (SMILES),TGI [1],TGI [2],TGI [3],TGI [4],TGI [5],TGI [6],TGI [7],TGI [8],TGI [9],TGI [10],GI50 [8],GI50 [2],GI50 [3],GI50 [4],GI50 [6],GI50 [7],GI50 [1],GI50 [5],GI50 [9],GI50 [10]
COC1(C)C(=O)N2C1N(C(=O)OCc1ccccc1)CC2(C)C (stereo unspecified),> 100 µM,> 100 µM,> 100 µM,> 100 µM,> 100 µM,> 100 µM,> 100 µM,,,,,,,,,,,,,
CCN(CC)CCCC(C)Nc1c(Sc2cnc3cc(Cl)ccc3c2NC(C)CCCN(CC)CC)cnc2cc(Cl)ccc12 (stereo unspecified),3.78 µM,3.34 µM,2.98 µM,3.23 µM,,5.21 µM,3.38 µM,4.74 µM,,,,,,,,,,,,
O=NN(CCCl)C(=O)NC1CCC(=O)NC1=O (stereo unspecified),> 1160 µM,1030 µM,396 µM,463 µM,934 µM,304 µM,,864 µM,593 µM,1100 µM,,,,,,,,,,
N.N.N.N.N.O=S(=O)([O-])C(F)(F)F.O=S(=O)([O-])C(F)(F)F.[Os+8],,30.2 µM,28.5 µM,> 100 µM,,40.6 µM,23.8 µM,77.6 µM,,,6.19 µM,10.8 µM,11.1 µM,5.21 µM,6.89 µM,9.12 µM,,,,
CCCCc1c2c(nc3c1CCc1cc4cc5c(nc4nc1-3)-c1nc3c(c(CCCC)c1CC5)CCC/C3=C\c1ccccc1)/C(=C/c1ccccc1)CCC2,> 100 µM,> 100 µM,> 100 µM,> 100 µM,> 100 µM,> 100 µM,> 100 µM,> 100 µM,,,,,,,,,,,,
Nc1ccc(C(=O)NN2C(=O)C(Cl)C2c2cccc(O)c2)cc1 (stereo unspecified),29.9 µM,31.9 µM,56.1 µM,29.7 µM,30.5 µM,28.9 µM,24.3 µM,40.2 µM,,,,,,,,,,,,
Cc1cc(C)nc(NS(=O)(=O)c2ccc(NC(=O)c3cccn4c(=O)c5ccccc5nc34)cc2)n1,,> 100 µM,> 100 µM,> 100 µM,> 100 µM,> 100 µM,> 100 µM,> 100 µM,,,,,,,,,,,,
COCCOCOC(C)(C)[C@H](CCOC(C)=O)O[Si](c1ccccc1)(c1ccccc1)C(C)(C)C,53.6 µM,> 100 µM,> 100 µM,24.1 µM,> 100 µM,23.7 µM,> 100 µM,97.4 µM,,,,,,,,,,,,
COc1ccc(Cc2nc3ccccc3s2)cc1OC,31 µM,31.9 µM,36.8 µM,38.3 µM,99.9 µM,44.7 µM,31.4 µM,44.8 µM,,,,,,,,,,,,
CC(=O)[CH-]C(=O)Nc1ccccc1.CC(=O)[CH-]C(=O)Nc1ccccc1.CC[O-].CC[O-].[Ti+4],> 100 µM,> 100 µM,> 100 µM,> 100 µM,> 100 µM,> 100 µM,,> 100 µM,,,> 100 µM,> 100 µM,61.2 µM,> 100 µM,> 100 µM,,> 100 µM,> 100 µM,,
Cc1ccc(NC(=O)CC2SC(N)=NC2=O)cc1C (stereo unspecified),> 100 µM,> 100 µM,> 100 µM,> 100 µM,> 100 µM,,> 100 µM,> 100 µM,,,,,,,,,,,,
C/C(=C\Cc1cc(O)ccc1O)CCc1c(C)c(O)c(O)c(C=O)c1C,43.2 µM,48.5 µM,> 100 µM,53.3 µM,> 100 µM,9.6 µM,32.4 µM,,,,,,,,,,,,,
CC(=O)NNc1nc(C)c(C(=O)/C=C/c2ccc(/C=C/C(=O)c3sc(NNC(C)=O)nc3C)cc2)s1,> 100 µM,> 100 µM,,> 100 µM,> 100 µM,> 100 µM,> 100 µM,> 100 µM,,,,,,,,,,,,
Nc1ncnc2c1nnn2C1C=C(CO)C(O)C1O (stereo unspecified),> 100 µM,> 100 µM,> 96.1 µM,> 100 µM,> 100 µM,> 100 µM,> 100 µM,> 100 µM,,,,,,,,,,,,
CN1CCc2c1nc(-c1cccnc1)c1c2N(C)CC1,> 100 µM,,> 100 µM,> 100 µM,> 100 µM,> 100 µM,> 100 µM,> 100 µM,,,,,,,,,,,,
O=C(COc1ccc(Cl)cc1)N1CCN(C(=O)COc2ccc(Cl)cc2)c2ccccc21,> 100 µM,> 100 µM,> 100 µM,> 100 µM,,> 100 µM,> 100 µM,> 100 µM,,,,,,,,,,,,
CCC1C(=O)OCc2c1cc1n(c2=O)C(CC)c2c-1nc1ccccc1c2Cl (stereo unspecified),47.5 µM,> 100 µM,,55.4 µM,> 100 µM,> 100 µM,> 100 µM,> 100 µM,,,,,,,,,,,,
CC(=O)Nc1ccc(C(=O)N2N=C(C)/C(=C/c3cccc([N+](=O)[O-])c3)C2=O)cc1,> 100 µM,> 100 µM,> 100 µM,> 100 µM,> 100 µM,> 100 µM,,> 100 µM,,,,,,,,,,,,
Nc1n[nH]c(N)c1N=Nc1ccc(O)cc1,69.7 µM,63.8 µM,41.6 µM,97.2 µM,> 100 µM,63 µM,,,63.5 µM,77.8 µM,,22.1 µM,18.5 µM,25.1 µM,20 µM,,22.7 µM,29.8 µM,14 µM,21.8 µM
NC(=O)C12CC3CC(CC(Br)(C3)C1)C2,> 100 µM,> 100 µM,> 100 µM,> 100 µM,> 100 µM,> 100 µM,> 100 µM,> 100 µM,,,,,,,,,,,,
CCC[CH2][Sn]([CH2]CCC)([O]C(=O)/C=C/c1ccccc1F)[O]C(=O)/C=C/c1ccccc1F,2.31 µM,1.29 µM,2.06 µM,3.37 µM,2.07 µM,0.616 µM,0.304 µM,1.7 µM,,,0.452 µM,0.328 µM,0.692 µM,1.64 µM,0.139 µM,0.131 µM,1.07 µM,0.788 µM,,
Cc1ccc(N=C2SC(c3ccc(C)cc3)(c3ccc(C)cc3)c3ccccc32)cc1,> 100 µM,> 100 µM,> 100 µM,> 100 µM,> 100 µM,> 100 µM,,,> 100 µM,> 100 µM,,,,,,,,,,
CC(=O)C12C[C@](C#N)(N3CCCCCC3)C1C=Cc1ccccc12 (stereo partly specified),> 100 µM,> 100 µM,> 100 µM,> 100 µM,> 100 µM,> 100 µM,,,> 100 µM,> 100 µM,,,,,,,,,,

# — PubChem BioAssay (NCI)
